Test system: pSMAD2:SMAD2 ratio
Assay: pSMAD2:SMAD2 ratio in BAL of healthy human subjects
Format: in vivo
Conditions: subjects with Cmax above 700 ng/mL; Day 7 vs baseline (Day -1)
Experimental: In order to evaluate the change of pSMAD2 as a biomarker of TGF-β activity following administration of an integrin inhibitor, and to determine a therapeutically effective dosage and an effective blood plasma Cmax of the integrin inhibitor, healthy subjects were administered compound 5, a dual selective αvβ6/avβ1-integrin inhibitor, and the corresponding Cmax levels and decrease in phosphorylation levels and were determined.
Healthy non-smoking adult males without history of lung disease were selected as subjects and were randomized into 4 cohorts. Broncoalevaolar lavage samples were obtained from all subjects 1 day prior to start of treatment. Cohorts 1 and 2 were administered 20 mg of a compound daily, wherein 3 subjects were administered the dual selective αvβ6/αvβ1-integrin inhibitor (compound 5) per every 1 subject receiving a placebo compound. Cohorts 3 and 4 were administered 40 mg of a compound daily, wherein 3 subjects were administered the dual selective αvβ6/αvβ1- integrin inhibitor (compound 5) per every 1 subject receiving a placebo compound. BAL samples and blood samples were taken from all subjects on Day -1 (baseline) and on Day 7 (end of treatment).

SMILES: COCCN(CCCCc1ccc2c(n1)NCCC2)CC[C@H](Nc1ncnc2ccccc12)C(=O)O [Compound 5, (S)-4-((2-methoxyethyl)(4-(5,6,7,8-tetrahydro-1,8-naphthyridin-2-yl)butyl)amino)-2-(quinazolin-4-ylamino)butanoic acid]
- reduction in pSMAD2:SMAD2 ratio in BAL: ≥ 50%

Reference: US20230293519A1, “INTEGRIN INHIBITORS AND USES THEREOF IN COMBINATION WITH OTHER AGENTS” (Pliant Therapeutics, Inc., priority 2021, published 2023)
